The subject of one assay is NLK 3′UTR. Kind of assay: Luciferase fused to NLK 3′UTR in differentiating HSPCs. Format: cell-based, human.
The next assay deals with CD11b+ myeloid cells. Kind of assay: CD11b+ myeloid expansion of differentiating human cord blood CD34+ progenitors. Format: cell-based. As for the experimental part:
FIG. 7. SD208 increases erythroid expansion in human model of DBA through inhibition of NLK and not TGFβ. (a) Differentiating cord blood CD34+ progenitors were transduced with shRNA against luciferase or RPS19 and treated with inhibitors at working concentrations for TGFβ inhibition every three days. Cells were counted and CD235+ erythroid cells were assessed by flow cytometry after 15 days. (b) Prior to flow cytometry, 5000 cells per group were taken from differentiating cultures for NLK kinase assay. (c) CD34+ progenitors were transduced with shRNA against luciferase or RPS19 and non-targeting or siRNA against NLK. After sorting, samples were split into two groups and either treated with vehicle or SD208 every three days. After 15 days cells were counted and subject to flow cytometry to compare the expansion of maturing CD235+ erythroid (left panel) and CD11b+ myeloid cells (right panel). […] Cells were counted and CD235+ erythroid (D—upper) and CD11b+ myeloid cell (D—lower) percentages were determined by flow cytometry. The number of erythroid or myeloid cells is expressed as a percentage of the number of that lineage with no cytokine or drug treatment.
FIG. 9. […] Cells were counted and the percentage expressing CD235+ erythroid (left) and CD11b+ myeloid (right) was determined by flow cytometry. […] Values are expressed as a fold induction relative to untreated. (Panel C) Transduced and sorted CD34+ progenitors were cultured in methylcellulose in the presence or absence of metformin for 16 days and BFU-E erythroid (left) and CFU-GM myeloid (right) colonies scored. […] To directly compare the effect of metformin in each group, metformin-treated cultures were normalized to untreated cultures and are expressed as a fold induction of the untreated control. […]
Cells were incubated with human Fc receptor binding inhibitor (#14-9161-73; eBioscience) followed by primary antibodies CD235-APC (#306607; BioLegend) and CD11b-PE/Cy5 (#101209; BioLegend). Data were collected on a DxP10 flow cytometer (Cytek) and analyzed by using FlowJo Software, v.9.7.2.

Protocol for NLK 3′UTR: We generated a series of truncated NLK 3′UTRs fused to the luciferase gene and transduced them into control and RPS19-insufficient differentiating HSPCs. Cells were treated with increasing concentrations of ginsenoside Rb1 or metformin and luciferase activity assessed.

As to `CC(C)=CCC[C@](C)(O[C@@H]1O[C@H](CO[C@@H]2O[C@H](CO)[C@@H](O)[C@H](O)[C@H]2O)[C@@H](O)[C@H](O)[C@H]1O)[C@H]1CC[C@]2(C)[C@@H]1[C@H](O)C[C@@H]1[C@@]3(C)CC[C@H](O[C@@H]4O[C@H](CO)[C@@H](O)[C@H](O)[C@H]4O[C@@H]4O[C@H](CO)[C@@H](O)[C@H](O)[C@H]4O)C(C)(C)[C@@H]3CC[C@]12C` [ginsenoside Rb1], the “reduction of luciferase activity (NLK 3′UTR)” value with NLK 3′UTR (50 mM ginsenoside Rb1) worked out at 35.9%. The “impact on CD11b+ myeloid expansion” value in the assay on CD11b+ myeloid cells (control or RPS19-insufficiency) was “did not impact”.

On to `CN(C)C(=N)N=C(N)N` [metformin], for which the “reduction of luciferase activity (NLK 3′UTR)” value with NLK 3′UTR (metformin) is given as 67.5%. In the assay on CD11b+ myeloid cells (50 mM metformin), the “influence on CD11b+ expansion” value is on record as “negligible influence”.
